Laboratory results as given in patent publication US20060069132A1, “Azolecarboxamide herbicides” (priority 2004, published 2006).

Legend:
giant foxtail = assay: Test B pre-/postemergence herbicide test; type: in vivo, Setaria faberi
Procedure, shortened: (§1)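 Visual rating, 0 (no effect) to 100 (complete control), versus untreated controls after 13–15 d in greenhouse. Pre- and postemergence applications (postemergence plants 2–18 cm, 1–4 leaves); flooded paddy arm at 2-leaf stage. Compounds in non-phytotoxic solvent plus surfactant.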

large crabgrass = assay: Test B pre-/postemergence herbicide test; type: in vivo, Digitaria sanguinalis
Procedure, shortened: as §1

morningglory = assay: Test B pre-/postemergence herbicide test; type: in vivo, Ipomoea coccinea
Procedure, shortened: (§2)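 Greenhouse pot assay with simultaneous preemergence (treated seed) and postemergence (2–18 cm seedlings) applications of surfactant-containing, non-phytotoxic solvent formulations. Response scored visually 13–15 days later on a 0–100 scale, 100 meaning complete control.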

rice = assay: Test B flooded paddy test; type: in vivo, Oryza sativa; conditions: 1000 g ai/ha, scale 0 to 100 (0 no effect, 100 complete control)
Procedure, shortened: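 Read-out: visual comparison with controls, scored 0 to 100, where 100 means complete control and 0 no effect. Formulated chemicals were applied postemergence to plants 2–18 cm tall (1- to 4-leaf), or to flooded-paddy plants at the 2-leaf stage, then held 13 to 15 days under glass.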

barnyardgrass = assay: Test B flooded paddy test; type: in vivo, Echinochloa crus-galli; conditions: 1000 g ai/ha, scale 0 to 100 (0 no effect, 100 complete control)
Procedure, shortened: (§3)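 Greenhouse test; postemergence application to plants at 1–4 leaves (2–18 cm); paddy species at 2 leaves; evaluated visually vs controls at 13–15 days; scale 0–100 (100 = complete control).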

Surinam grass = assay: Test B pre-/postemergence herbicide test; type: in vivo, Urochloa decumbens
Procedure, shortened: as §1

lambsquarters = assay: Test B pre-/postemergence herbicide test; type: in vivo, Chenopodium album
Procedure, shortened: as §1

cocklebur = assay: Test B pre-/postemergence herbicide test; type: in vivo, Xanthium strumarium
Procedure, shortened: as §2

wild oat = assay: Test B postemergence herbicide test; type: in vivo, Avena fatua
Procedure, shortened: (§4)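 Scale 0–100: zero equals no visible effect, 100 complete control, judged by eye relative to controls. Timing: 13 to 15 days in greenhouse post-treatment. Growth stage at spraying: two leaves (paddy) or one to four leaves, 2–18 cm (postemergence).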

corn = assay: Test B pre-/postemergence herbicide test; type: in vivo, Zea mays
Procedure, shortened: as §1

blackgrass = assay: Test B postemergence herbicide test; type: in vivo, Alopecurus myosuroides
Procedure, shortened: as §3

wheat = assay: Test B postemergence herbicide test; type: in vivo, Triticum aestivum; design: key to Wheat plant response rating: 0 = no effect, 100 = complete control
Procedure, shortened: as §4

[1] = system: small flower umbrella sedge; assay: Test B flooded paddy test; type: in vivo, Cyperus difformis; conditions: 1000 g ai/ha, scale 0 to 100 (0 no effect, 100 complete control)
Procedure, shortened: as §3

velvetleaf = assay: Test B pre-/postemergence herbicide test; type: in vivo, Abutilon theophrasti
Procedure, shortened: as §1

pigweed = assay: Test B pre-/postemergence herbicide test; type: in vivo, Amaranthus retroflexus
Procedure, shortened: as §1

[2] = Postemergence, 125 g ai/ha, scale 0 (no effect) to 100 (complete control)
[3] = Postemergence, 500 g ai/ha, visual rating after 13 to 15 days, scale 0 (no effect) to 100 (complete control)
[4] = Preemergence, 500 g ai/ha, scale 0 to 100
[5] = preemergence, 125 g ai/ha, 0 to 100 scale, 0 is no effect, 100 is complete control
[6] = 125 g ai/ha, 0 is no effect, 100 is complete control, preemergence
[7] = 125 g ai/ha, visual rating, scale 0 (no effect) to 100 (complete control), postemergence
[8] = Postemergence, 500 g ai/ha, scale 0 (no effect) to 100 (complete control)
[9] = Postemergence, 250 g ai/ha, scale 0 (no effect) to 100 (complete control)
[10] = postemergence, 62 g ai/ha, scale 0 to 100

CCCCn1nc(C(C)(C)C)cc1C(=O)Nc1cccc(C(=O)NCC)c1 [Compound 41]
Foxtail, Giant plant response rating (giant foxtail; [2]): 10 | Plant response rating, Foxtail, Giant (giant foxtail; [3]): 20 | Foxtail, Giant plant response rating (giant foxtail; [4]): 70 | Plant response rating, Foxtail, Giant (giant foxtail; [5]): 10 | Crabgrass, Large plant response rating (large crabgrass; [2]): 20 | Plant response rating, Crabgrass, Large (large crabgrass; [3]): 30 | Crabgrass, Large plant response rating (large crabgrass; [4]): 100 | Morningglory plant response rating (morningglory; [4]): 10 | Plant response rating, Morningglory (morningglory; [5]): 0 | Rice plant response rating (rice; visual rating, 13 to 15 days): 20 | Barnyardgrass plant response rating (barnyardgrass; visual rating, 13 to 15 days): 50 | Plant response rating, Surinam Grass (Surinam grass; [3]): 20 | Surinam Grass plant response rating (Surinam grass; [4]): 60 | Plant response rating, Surinam Grass (Surinam grass; [5]): 10 | Lambsquarters plant response rating (lambsquarters; [2]): 60 | Plant response rating, Lambsquarters (lambsquarters; [3]): 70 | Lambsquarters plant response rating (lambsquarters; [4]): 100 | Plant response rating, Lambsquarters (lambsquarters; [5]): 80 | Cocklebur plant response rating (cocklebur; [2]): 10 | Plant response rating, Cocklebur (cocklebur; [3]): 40 | Cocklebur plant response rating (cocklebur; [4]): 0 | Oat, Wild plant response rating (wild oat; [2]): 10 | Plant response rating, Oat, Wild (wild oat; [3]): 10 | Corn plant response rating (corn; [4]): 0 | Blackgrass plant response rating (blackgrass; [2]): 10 | Plant response rating, Blackgrass (blackgrass; [3]): 20 | Plant response rating, Wheat (wheat; [3]): 10 | Sedge, Umbrella plant response rating ([1]; visual rating, 13 to 15 days): 70 | Plant response rating, Velvetleaf (velvetleaf; [3]): 20 | Velvetleaf plant response rating (velvetleaf; [4]): 10 | Plant response rating, Velvetleaf (velvetleaf; [5]): 0 | Plant response rating, Pigweed (pigweed; [3]): 70 | Pigweed plant response rating (pigweed; [4]): 70 | Plant response rating, Pigweed (pigweed; [5]): 70

CCNC(=O)c1ccc(F)c(N(C(C)=O)C(=O)c2cc(C(C)(C)C)nn2CC)c1 [Compound 399]
Plant response rating (0 to 100 scale), Foxtail, Giant (giant foxtail; [6]): 100 | Foxtail, Giant plant response rating (giant foxtail; [7]): 30 | Foxtail, Giant plant response rating (giant foxtail; [8]): 50 | Plant response rating (0 to 100 scale), Crabgrass, Large (large crabgrass; [6]): 100 | Crabgrass, Large plant response rating (large crabgrass; [7]): 20 | Crabgrass, Large plant response rating (large crabgrass; [8]): 30 | Plant response rating (0 to 100 scale), Morningglory (morningglory; [6]): 10 | Morningglory plant response rating (morningglory; [7]): 20 | Morningglory plant response rating (morningglory; [8]): 40 | Rice plant response rating (rice): 80 | Barnyardgrass plant response rating (barnyardgrass): 90 | Plant response rating (0 to 100 scale), Surinam Grass (Surinam grass; [6]): 90 | Surinam Grass plant response rating (Surinam grass; [7]): 20 | Surinam Grass plant response rating (Surinam grass; [8]): 40 | Plant response rating (0 to 100 scale), Lambsquarters (lambsquarters; [6]): 100 | Lambsquarters plant response rating (lambsquarters; [7]): 80 | Lambsquarters plant response rating (lambsquarters; [8]): 100 | Plant response rating (0 to 100 scale), Cocklebur (cocklebur; [6]): 50 | Cocklebur plant response rating (cocklebur; [7]): 60 | Cocklebur plant response rating (cocklebur; [8]): 80 | Oat, Wild plant response rating (wild oat; [7]): 20 | Oat, Wild plant response rating (wild oat; [8]): 40 | Plant response rating (0 to 100 scale), Corn (corn; [6]): 90 | Corn plant response rating (corn; [7]): 10 | Corn plant response rating (corn; [8]): 40 | Blackgrass plant response rating (blackgrass; [7]): 30 | Blackgrass plant response rating (blackgrass; [8]): 70 | Wheat plant response rating (wheat; [7]): 10 | Wheat plant response rating (wheat; 500 g ai/ha, scale 0 to 100, 0 no effect, 100 complete control, preemergence): 100 | Wheat plant response rating (wheat; [8]): 30 | Sedge, Umbrella plant response rating [1]: 80 | Plant response rating (0 to 100 scale), Velvetleaf (velvetleaf; [6]): 80 | Velvetleaf plant response rating (velvetleaf; [7]): 20 | Velvetleaf plant response rating (velvetleaf; [8]): 80 | Plant response rating (0 to 100 scale), Pigweed (pigweed; [6]): 100 | Pigweed plant response rating (pigweed; [7]): 60 | Pigweed plant response rating (pigweed; [8]): 80

CCNC(=O)c1ccnc(NC(=O)c2cc(C(C)(C)C)nn2CC)c1 [Compound 152]
Foxtail, Giant plant response rating (giant foxtail; [9]): 20 | Foxtail, Giant plant response rating (giant foxtail; [10]): 10 | Crabgrass, Large plant response rating (large crabgrass; [9]): 20 | Crabgrass, Large plant response rating (large crabgrass; [10]): 10 | Morningglory plant response rating (morningglory; [9]): 60 | Morningglory plant response rating (morningglory; [10]): 50 | Rice plant response rating (rice; visual rating, 13 to 15 days): 70 | Barnyardgrass plant response rating (barnyardgrass; visual rating, 13 to 15 days): 80 | Surinam Grass plant response rating (Surinam grass; [9]): 40 | Surinam Grass plant response rating (Surinam grass; [10]): 30 | Lambsquarters plant response rating (lambsquarters; [9]): 80 | Lambsquarters plant response rating (lambsquarters; [10]): 70 | Cocklebur plant response rating (cocklebur; [9]): 90 | Cocklebur plant response rating (cocklebur; [10]): 60 | Oat, Wild plant response rating (wild oat; [9]): 20 | Oat, Wild plant response rating (wild oat; [10]): 10 | Corn plant response rating (corn; [9]): 30 | Corn plant response rating (corn; [10]): 20 | Blackgrass plant response rating (blackgrass; [9]): 20 | Blackgrass plant response rating (blackgrass; [10]): 20 | Wheat plant response rating (wheat; 250 g ai/ha, scale 0 to 100, 0 no effect, 100 complete control, preemergence): 100 | Wheat plant response rating (wheat; [9]): 10 | Wheat plant response rating (wheat; [10]): 10 | Sedge, Umbrella plant response rating ([1]; visual rating, 13 to 15 days): 90 | Velvetleaf plant response rating (velvetleaf; [9]): 50 | Velvetleaf plant response rating (velvetleaf; [10]): 50 | Pigweed plant response rating (pigweed; [9]): 90 | Pigweed plant response rating (pigweed; [10]): 50
